From patent publication US20260294915A1, “COMBINATION THERAPY COMPRISING A MAT2A INHIBITOR AND A TOPOISOMERASE INHIBITOR, A SPLICING INHIBITOR SULFONAMIDE, OR A KIF18 INHIBITOR” (IDEAYA BIOSCIENCES, INC., priority 2023, published 2026)

Columns and labels:
Format in all cases: cell-based
[1] = system: UMUC11; test: 10-day proliferation (CTG), equimolar Compound A + Compound B (Example 1); settings: 240 h, 10 days, single agent or 1:1 combo; for IC30: read-out: gIC30; for IC40: read-out: gIC40; for IC50: read-out: gIC50; for IC60: read-out: gIC60; for IC70: read-out: gIC70; for IC80: read-out: gIC80; for IC90: read-out: gIC90; for IC100: read-out: gIC100
Protocol: (§1) A 10-day proliferation assay was performed in a panel of 5 MTAP-deficient and 2 wild type non-small cell lung and bladder cancer cell lines. Optimal cell seeding for all cell lines was determined by assessing the growth over a range of seeding densities in a 384-well format to identify conditions that permitted proliferation for 10 days. Cells were then plated at the optimal seeding density and treated with 20-point, two-fold dilution series of Compound A, sovilnesib (“Compound B”), or an equimolar combination of Compound A and Compound B. Concentrations tested for Compound A and Compound B alone or in combination ranged from 0.038 nM to 20,000 nM. A plate of cells was harvested at the time of compound addition to quantify the number of cells at the start of the combination (T0). For cell quantification, the harvested cells were lysed with Promega CellTiter-Glo (CTG) reagent according to the manufacturer's protocol and the chemiluminescent signal was detected on a Synergy Neo plate reader. CTG estimates cell number through detection of cellular ATP levels. Cells were incubated with the drug combinations at 37° C. with 5% CO2 for 10 days. Cells were then lysed with CTG and the chemiluminescent signal was measured.
(§2) CTG values obtained after the 10-day treatment were background subtracted and expressed as a percent of the T0 value. Data were plotted against compound concentration and fit with a four-parameter equation to generate dose response curves for each single agent and the equimolar combination. Growth ICx (gICx) values ranging from gIC30 to gIC100 were interpolated from the fitted curves. Synergistic growth inhibition was assessed by determination of Combination Index (CI) values at these various points across the titration using the mutually non-exclusive equation [Chou, 1983; Chou, 1981] shown below where A equals the gIC value of Compound A, B equals the gICx value of Compound B, and A+B or B+A equals the gICx value of the equimolar combination. A Combination Index value less than 1.0 was considered synergistic.
(§3) Synergy was measured for equimolar combinations of Compound A and Compound B utilizing the mutually non-exclusive Combination Index equation across gICx values ranging from gIC30-gIC100. Combination Index values are shown for: NCI-H838 (3A), SW900 (3B), RT112/84 (3C), UMUC5 (3D), and UMUC11 (3E).

[2] = system: UMUC5; test: as above; settings: 240 h, 10 days, single agent or 1:1 combo; for IC30: read-out: gIC30; for IC40: read-out: gIC40; for IC50: read-out: gIC50; for IC60: read-out: gIC60; for IC70: read-out: gIC70; for IC80: read-out: gIC80; for IC90: read-out: gIC90; for IC100: read-out: gIC100
Protocol: as §1, §2, §3

[3] = system: TCCSUP; test: 10-day proliferation (CTG), Compound B titration + 1000 nM Compound A, Bliss (Example 2); parameters: key: GDI on scale −100 to 100; 0 = cell number at T0
Protocol: (§4) A 10-day proliferation assay was performed in a panel of 5 MTAP-deficient and 2 wild type non-small cell lung and bladder cancer cell lines. Optimal cell seeding for all cell lines was determined by assessing the growth over a range of seeding densities in a 384-well format to identify conditions that permitted proliferation for 10 days. Cells were then plated at the optimal seeding density and treated with 20-point, two-fold dilution series of Compound B in combination with a 1000 nM fixed concentration of Compound A. Single agent titrations for Compound A and Compound B were included for comparison. Concentrations tested for Compound A and Compound B alone or in combination ranged from 0.038 nM to 20,000 nM. A plate of cells was harvested at the time of compound addition to quantify the number of cells at the start of the combination (T0). For cell quantification, the harvested cells were lysed with Promega CellTiter-Glo (CTG) reagent according to the manufacturer's protocol and the chemiluminescent signal was detected as described in Example 1 above. Cells were incubated with the drug combinations at 37° C. with 5% CO2 for 10 days. Cells were then lysed with CTG and the chemiluminescent signal was measured.
(§5) CTG values obtained after the 10-day treatment were background subtracted and expressed as a percent of the T0 value set at 100%. Data were plotted against compound concentration and fit with a four-parameter equation to generate single agent dose response curves. Percent inhibition was determined for each combination and single agent concentration compared to a DMSO control. In addition, the overall net growth or death of the cells was calculated and reported as a growth death index (GDI) value on a scale of −100 to 100 with the midpoint (0) being the number of cells at the beginning of the combination (T0).
(§6) Synergistic growth inhibition was assessed using the Bliss Independence model for each point of the Compound B titration in combination with 1000 nM Compound A. The observed growth inhibition at each point was compared to the predicted inhibition based on the additive activity of each single agent. Predicted inhibition was calculated using (Ea+Eb)−(Ea*Eb) where E equals the effect (inhibition) of each single agent (a and b). A difference between the observed inhibition percentage and the predicted inhibition percentage greater than 10% was considered synergistic. A Bliss score was only calculated for combinations eliciting >20% growth inhibition (GDI value <80). Since Bliss is calculated based on growth inhibition, scores within cytotoxic dose ranges may not accurately reflect synergistic cytotoxicity.
(§7) Synergy was measured across the Compound B titration with 1000 nM Compound A by Bliss Independence analysis. Bliss scores >10 are indicated by “*” and are considered synergistic. […] Synergy as reported using Bliss may be underrepresented within cytotoxic dose ranges. Growth death index values are shown for the combination titration and each single agent Compound A (Cmpd A) and Compound B (Cmpd B) on a scale of −100 to 100 with the midpoint (0) being the number of cells at the beginning of the combination (T0). Bliss and GDI values are shown for five MTAP-deficient cell lines: NCI-1H520 (6A), TCCSUP (6B).

[4] = system: NCI-H520; test: as above; parameters: key: GDI on scale −100 to 100; 0 = cell number at T0
Protocol: as §4, §5, §6, §7

[5] = Cmpd B 0.04 nM, combo: + 1000 nM Cmpd A
[6] = Cmpd B 0.1 nM, combo: + 1000 nM Cmpd A
[7] = Cmpd B 0.2 nM, combo: + 1000 nM Cmpd A
[8] = Cmpd B 0.3 nM, combo: + 1000 nM Cmpd A
[9] = Cmpd B 0.6 nM, combo: + 1000 nM Cmpd A
[10] = Cmpd B 1.2 nM, combo: + 1000 nM Cmpd A
[11] = Cmpd B 2.4 nM, combo: + 1000 nM Cmpd A
[12] = Cmpd B 4.9 nM, combo: + 1000 nM Cmpd A
[13] = Cmpd B 9.8 nM, combo: + 1000 nM Cmpd A
[14] = Cmpd B 19.5 nM, combo: + 1000 nM Cmpd A
[15] = Cmpd B 39.1 nM, combo: + 1000 nM Cmpd A
[16] = Cmpd B 78.1 nM, combo: + 1000 nM Cmpd A
[17] = Cmpd B 156.3 nM, combo: + 1000 nM Cmpd A
[18] = Cmpd B 312.5 nM, combo: + 1000 nM Cmpd A
[19] = Cmpd B 625 nM, combo: + 1000 nM Cmpd A
[20] = Cmpd B 1250 nM, combo: + 1000 nM Cmpd A
[21] = Cmpd B 2500 nM, combo: + 1000 nM Cmpd A
[22] = Cmpd B 5000 nM, combo: + 1000 nM Cmpd A
[23] = Cmpd B 10000 nM, combo: + 1000 nM Cmpd A
[24] = Cmpd B 20000 nM, combo: + 1000 nM Cmpd A

Nc1nc(=O)n(-c2ccccc2Cl)c2nc(C(F)(F)F)ccc12 [Compound A]
IC30 [1]: 20 µM
IC40 [1]: 20 µM
IC50 [1]: 20 µM
IC60 [1]: 20 µM
IC70 [1]: 20 µM
IC80 [1]: 20 µM
IC90 [1]: 20 µM
IC100 [1]: 20 µM
IC30 [2]: 0.357 µM
IC40 [2]: 1.35 µM
IC50 [2]: 5.16 µM
IC60 [2]: 19.4 µM
IC70 [2]: 20 µM
IC80 [2]: 20 µM
IC90 [2]: 20 µM
IC100 [2]: 20 µM
GDI ([3]; single agent, 1000 nM Cmpd A): 88
GDI ([4]; single agent, 1000 nM Cmpd A): 100

Cc1cc(NC(=O)c2ccc(NS(=O)(=O)CCO)cc2N2CCC3(CC2)CC3)nc(N2CCC(F)(F)CC2)n1 [Compound B, N-(2-(4,4-difluoropiperidin-1-yl)-6-methylpyrimidin-4-yl)-4-((2-hydroxyethyl)sulfonamido)-2-(6-azaspiro[2.5]octan-6-yl)benzamide]
IC30 [1]: 2.2 µM
IC40 [1]: 3.48 µM
IC50 [1]: 5.17 µM
IC60 [1]: 7.3 µM
IC70 [1]: 9.95 µM
IC80 [1]: 13.2 µM
IC90 [1]: 17.1 µM
IC100 [1]: 20 µM
IC30 [2]: 0.17 µM
IC40 [2]: 0.194 µM
IC50 [2]: 0.221 µM
IC60 [2]: 0.253 µM
IC70 [2]: 0.296 µM
IC80 [2]: 0.37 µM
IC90 [2]: 0.662 µM
IC100 [2]: 20 µM
GDI [3, 5]: 100
GDI [3, 6]: 100
GDI [3, 7]: 100
GDI [3, 8]: 100
GDI [3, 9]: 100
GDI [3, 10]: 100
GDI [3, 11]: 100
GDI [3, 12]: 100
GDI [3, 13]: 100
GDI [3, 14]: 100
GDI [3, 15]: 100
GDI [3, 16]: 76
GDI [3, 17]: 38
GDI [3, 18]: 15
GDI [3, 19]: 8
GDI [3, 20]: 10
GDI [3, 21]: 11
GDI [3, 22]: 6
GDI [3, 23]: −5
GDI [3, 24]: −95
GDI [4, 5]: 100
GDI [4, 6]: 100
GDI [4, 7]: 100
GDI [4, 8]: 100
GDI [4, 9]: 100
GDI [4, 10]: 100
GDI [4, 11]: 100
GDI [4, 12]: 100
GDI [4, 13]: 100
GDI [4, 14]: 100
GDI [4, 15]: 100
GDI [4, 16]: 100
GDI [4, 17]: 100
GDI [4, 18]: 85
GDI [4, 19]: 77
GDI [4, 20]: 92
GDI [4, 21]: 92
GDI [4, 22]: 61
GDI [4, 23]: 17
GDI [4, 24]: −57
